US20130065825A1, “Compositions and Methods for Delaying Senescence or Cell Death in Neurons” (NEUROTEZ, INC., priority 2011, published 2013)

Tests used:
Total Sirtuins [1] = assay: SIRT activity assay (Fluor-de-Lys HDAC Fluorimetric Cellular Activity Assay Kit) in lysates of RA-SY5Y cells; assay type: cell-based, human; details: 6 h
Procedure: (§1) For neuronal differentiation, 1×10^6 SY5Y or IMR-32 cells were grown in neruonal induction medium (NIM), which is consisted of MEM containing 2% FBS supplemented with 10 μM retinoic acid (RA). Cells were incubated in NIM for 6 days, and switched to serum-free NIM prior to treatment and harvesting on day 7.
(§2) Neuronal cells were treated with Leptin (500 ng/ml) in the presence or absence of nicotinamide (5 mM) or compound C (20 μM) for 6 or 18 h, depending on readout, and then harvested by scraping. Preparation of lysates and immunoblotting were performed as described.
Total Sirtuins activity in cell lysates was determined using the Fluro-de-Lys® HDAC Fluorimetric Cellular Activity Assay Kit (Enzo Life Sciences; Plymouth Meeting, Pa.), according to manufacturer's specified guidelines. “SIRT activity” in this assay is defined as nicotinamide-sensitive deacetylase (class III HDAC) activity in cell lysates. […] Neuronal cell lysates were incubated in the presence or absence of 5 mM nicotinamide, and SIRT activity determined by adding the Flour-de-Lys® Substrate for deacetylation followed by exposure to the Fluor-de-Lys® Developer to generate a fluorescent signal for detection using a fluorimeter (Ex. 350-380 nm; Em. 440-460 nm). Normalized SIRT activity in the lysates was measured in units of fluorescence intensity (Fi) and defined as: […]

phosphorylated tau = assay: Tau phosphorylation in RA-SY5Y cells by immunoblot (pTau181) and ELISA (pTau231, pTau396); assay type: cell-based, human; details: 6 h; for effect of co-treatment on Leptin's reduction of phospho-tau: Leptin 500 ng/mL + nicotinamide 5 mM or compound C 20 μM, phospho-tau returned to control levels; for Tau396 phosphorylation compared to control: nicotinamide 5 mM or compound C 20 μM, independent of Leptin treatment, ELISA
Procedure: as §1, §2
(§3) Aβ(1-40) levels in cell culture media were determined using the Human β-Amyloid 1-40 ELISA kit (Invitrogen; Carlsbad, Calif.), and phospho- and total tau levels in cell culture lysates were determined using the Human Tau pSer^396, pThr^231 and Total Tau ELISA kits (Invitrogen) according to manufacturer's specific instructions.
The Invitrogen Human Tau (Total) kit is a solid phase sandwich Enzyme Linked-Immuno-Sorbent Assay (ELISA). Samples, including standards of known human Tau content, control specimens, and unknowns, are pipetted into the wells of microtiter strips, which are coated with a monoclonal antibody specific for human Tau. During the first incubation, the human Tau antigen binds to the immobilized (capture) antibody on one site. After washing, a rabbit polyclonal antibody specific for human Tau is added. During the second incubation, this antibody binds to the immobilized human Tau captured during the first incubation. After removal of excess second antibody, a horseradish peroxidase (HRP)-labeled anti-rabbit antibody is added. This binds to the rabbit polyclonal antibody to complete the four-member sandwich. After a third incubation and washing to remove all the excess anti-rabbit HRP, a substrate solution is added, which is acted upon by the bound enzyme to produce color. The intensity of this colored product is directly proportional to the concentration of human Tau present in the original specimen.

Aβ(1-40) = Aβ(1-40) in culture media of SY5Y-APP751 cells by ELISA; assay type: cell-based, human; details: 18 h; for effect of co-treatment on Leptin's reduction of Aβ(1-40): Leptin 500 ng/mL + nicotinamide 5 mM or compound C 20 μM, Aβ(1-40) returned to vehicle levels
Procedure: To generate SY5Y stably over-expressing amyloid precursor protein (APP), cells were transfected with a mammalian expression vector encoding the 751 amino acid isoform of human APP (APP751-Accession #NM_201413) (Origene Technologies; Rockville, Md.) using the FuGENE HD transfection reagent, according to manufacturer's specific instructions (Promega; Madison, Wis.). Briefly, cells were transiently transfected with APP751 or vehicle for 48 h and then switched into selection medium containing a concentration range of the antibiotic G418 (100-600 μg/mL) to determine the optimal dose for stable selection. Selection media was changed every 3 days to remove non-viable cells. After 3 weeks, 200 μg/mL G418 yielded distinct colonies while all vehicle-transfected cells were non-viable. Cells were maintained in 10% FBS media containing 200 μg/mL G418 for expansion.
as §2, §3
The Human β-Amyloid 1-40 ELISA kit was used for the quantitative determination of human Aβ40 in samples (e.g., tissue culture medium, tissue homogenate, cerebrospinal fluid (CSF), and the like). The assay recognizes both natural and synthetic forms of human Aβ40. The anti-human Aβ40 antibody is capable of selectively detecting Aβ40 and not Aβ42/Aβ43. The Human β-Amyloid 1-40 ELISA kit is a solid phase sandwich Enzyme Linked-Immuno-Sorbent Assay (ELISA). […] This COOH-terminal sequence is created upon cleavage of the analyzed precursor. Bound rabbit antibody then is detected by the use of a horseradish peroxidase (HRP)-labeled anti-rabbit antibody. […]

Total Sirtuins [2] = details: identified by the manufacturer of the kit; cited from earlier work
[3] = tested on: AMP-Activated Protein Kinase (AMPK); assay: AMPK activity assay (CycLex AMPK Kinase Assay Kit) in lysates of RA-SY5Y cells; assay type: cell-based, human
Procedure: as §1, §2
AMP-Activated Protein Kinase (AMPK) activity in cell lysates was determined using the CycLex AMPK Kinase Assay Kit (MBL International; Woburn, Mass.), as described previously. Briefly, the term “relative AMPK activity” or “AMPK activity,” is defined as Compound C-sensitive protein kinase activity in cell lysates. Titration of various Compound C doses identified 10 μM as the dose in which there was no further reduction in kinase activity upon increasing concentration (data not shown). Neuronal cell lysates were incubated in the presence or absence of 10 μM Compound C, and protein kinase activity determined by measuring phosphorylation of the Insulin Receptor Substrate-1 (IRS-1) through immunoassay and conversion of a chromogenic substrate at an absorbance of 450 nm (A450). Normalized AMPK activity in the lysates was defined as: […]

Compound | SIRT activity on co-treatment with Leptin (Total Sirtuins [1]; Leptin 500 ng/mL + nicotinamide 5 mM, to levels similar to non-treated control) | effect of co-treatment on Leptin's reduction of phospho-tau (phosphorylated tau) | Tau396 phosphorylation compared to control (phosphorylated tau) | effect of co-treatment on Leptin's reduction of Aβ(1-40) (Aβ(1-40)) | dose with no further reduction in deacetylase activity upon increasing concentration (Total Sirtuins [2]) | increase in AMPK kinase activity vs cells treated without Leptin ([3]; RA-SY5Y cells, Leptin 500 ng/mL, 6 h, normalized to total protein, n=3, p<0.05) | increase in total SIRT deacetylase activity vs cells treated without Leptin (Total Sirtuins [1]; Leptin 500 ng/mL, normalized to total protein, n=3, p<0.05) | all examined phospho-tau species (pTau181, pTau231, pTau396) (phosphorylated tau; Leptin 500 ng/mL, no SIRT or AMPK inhibition, normalized to total tau, n=3) | Aβ(1-40) in culture media (Aβ(1-40); Leptin 500 ng/mL, no inhibitors, normalized to total protein, n=3) | AMPK activity on co-treatment with Leptin ([3]; RA-SY5Y cells, Leptin 500 ng/mL + compound C 20 μM, 6 h, to levels similar to non-treated control) | dose with no further reduction in kinase activity upon increasing concentration ([3]; titration in cell lysates, data not shown)
NC(=O)c1cccnc1 [nicotinamide] | significantly (p<0.05) reduced SIRT activity | negated these effects | significantly (p<0.05) increased | reversed these effects | 5 mM | – | – | – | – | – | –
Leptin: recombinant human Leptin purchased from Sigma-Aldrich; pleiotropic hormone primarily secreted by adipocytes | – | – | – | – | – | approximately 2 fold | approximately 2.5 fold | significant (p<0.05) reduction | significant (p<0.05) reduction | – | –
c1cc(-c2cnn3cc(-c4ccc(OCCN5CCCCC5)cc4)cnc23)ccn1 [compound C, 6-[4-(2-Piperidin-1-yl-ethoxy)-phenyl]-3-pyridin-4-yl-pyrrazolo[1,5,-α]pyrimidine] | – | negated these effects | significantly (p<0.05) increased | reversed these effects | – | – | – | – | – | significantly (p<0.05) reduced AMPK activity | 10 µM
